Patent publication US20040072824A1, “Methods and compositions for the treatment of cancer” (priority 2001, published 2004)
Like-named read-outs stand apart in the source and are kept apart here.

How the values were obtained:
U937 = assay type: in vivo; details: for toxicity for the animals: mouse, in vivo; for tumor growth compared to the negative control: treatment from day 1, cells inoculated after more than 24 hours, daily administration
Experimental: The second protocol was designed to test the preventive effects of the compounds of this invention on tumorigenesis. In this protocol, the animals have been treated with various compounds of the present invention on day 1. After more than 24 hours, tumoral cells were inoculated. The administration of the compounds of this invention was maintained daily. The cell line used for this test was U937.

[1] = test system: K562, U937, MDA-DB231, BT20 and MCF7 cell lines; assay: Cytotoxic effects in multi-well plate, 6 days, ATP level (CellTiter-Glo); details: 2x10^-9 M to 2x10^-4 M
Experimental: In order to test the cytotoxic effects of various compounds, a test was developed in a multi-well plate. Two leukemic cell lines, namely K562 and U937, and three breast cancer cell lines, namely MDA-DB231, BT20 and MCF7 were used for this test.
The cells were seeded at low density and were left for 24 hours to recover and reach a new logarithmic phase of growth. Various concentrations of the compounds being tested, ranging from 2×10^−9 M to 2×10^−4 M, were added in triplicate. The mixture was incubated for 6 days, during which approximately 4 doublings of the cell population occurred, to allow the cells to reach subconfluence.
The viability of the cultured cells after the treatment by the compounds was determined by quantifying the level of ATP since the level of ATP is directly proportional to the number of viable cells present in the culture. The ATP level was quantified by using CellTiter-Glo™ (Promega) luminescent test for cell viability.

[2] = test system: MDA-MB-231 (breast cancer line); assay: Curative effects on palpable tumors, MDA-MB-231 cells in scid/scid mice; assay type: in vivo; details: for tumor growth: daily once tumors palpable, at least at the higher concentration tested; for death of test animals: higher dosage
Experimental: In this series of experiments, effects of various compounds of the present invention on tumor development were tested using two protocols. The first protocol is directed to the testing of curative effects of these compounds in different cell lines. In this protocol, cancerous cells are inoculated to the animals, and the inoculated animals were left without any further treatment until the development of tumors. As soon as the tumors became palable (4 mm^3), the compounds of this invention were administered daily to the animals.

[3] = test system: blastic cells from AML patients; assay: Inhibition of viability of fresh leukemic cells (trypan blue exclusion); assay type: cell-based, human; details: Homo sapiens, day 3; for cytotoxicity at 10 µM: 10^-5 M; for cytotoxicity at 1 µM: 10^-6 M
Experimental: Samples for AML 1 through 5, AML 1 being the least and AML 5 being the most differentiated, were obtained. […] Cells were incubated with or without […] anti-histamine derivatives. Polaramine was included as a negative control. Cell counts were assessed by trypan blue exclusion test at day 3 after the incubation. Morphological analysis was performed using Wright-Giemsa staining on cytocentrifuge preparations. The results were expressed as % inhibition of growth as compared to negative control.

U937 cells = assay: Antineoplastic activity, U937 cells injected in scid/scid mice, treatment from day 1; assay type: in vivo; details: 100 mg/kg; six mice
Experimental: Ten million U937 cells were subcutaneously injected into scid/scid mice. One injection was carried out per each of the 6 mice tested per set. The excipient or the compounds tested were administered intraperitoneally on day 1, i.e., the day of U937 cell line inoculation, of the experiment. The excipients or compounds were administered once daily. The tumor sizes were measured on day 5, day 8, day 12, day 14 and day 19 after the injection.

[4] = 72 h, MEAN over AML patients, read-out: In Vitro Percent Inhibition of Viability, MEAN
[5] = 72 h, patient ID 3, FAB AML2, read-out: In Vitro Percent Inhibition of Viability
[6] = 72 h, patient ID 4, FAB AML2, read-out: In Vitro Percent Inhibition of Viability
[7] = 72 h, patient ID 5, FAB AML2, read-out: In Vitro Percent Inhibition of Viability
[8] = 72 h, patient ID 10, FAB AML4, read-out: In Vitro Percent Inhibition of Viability
[9] = 72 h, patient ID 11, FAB AML5, read-out: In Vitro Percent Inhibition of Viability
[10] = 72 h, patient ID 12, FAB AML5, read-out: In Vitro Percent Inhibition of Viability
[11] = 72 h, patient ID 13, FAB AML5, read-out: In Vitro Percent Inhibition of Viability
[12] = 72 h, patient ID 14, FAB AML5, read-out: In Vitro Percent Inhibition of Viability
[13] = 72 h, patient ID 15, FAB AML5, read-out: In Vitro Percent Inhibition of Viability
[14] = AML1, 72 h, patient ID 1, FAB AML1, read-out: In Vitro Percent Inhibition of Viability
[15] = AML1, 72 h, patient ID 2, FAB AML1, read-out: In Vitro Percent Inhibition of Viability
[16] = AML3, 72 h, patient ID 6, FAB AML3, read-out: In Vitro Percent Inhibition of Viability
[17] = AML3, 72 h, patient ID 7, FAB AML3, read-out: In Vitro Percent Inhibition of Viability
[18] = AML3, 72 h, patient ID 8, FAB AML3, read-out: In Vitro Percent Inhibition of Viability
[19] = AML3, 72 h, patient ID 9, FAB AML3, read-out: In Vitro Percent Inhibition of Viability

| Compound | cytotoxic effect group [1] | cytotoxicity at 10 µM [3, 4] [%] | cytotoxicity at 1 µM [3, 4] [%] | cytotoxicity at 10 µM [3, 5] [%] | cytotoxicity at 1 µM [3, 5] [%] | cytotoxicity at 10 µM [3, 6] [%] | cytotoxicity at 1 µM [3, 6] [%] | cytotoxicity at 10 µM [3, 7] [%] | cytotoxicity at 1 µM [3, 7] [%] | cytotoxicity at 10 µM [3, 8] [%] | cytotoxicity at 1 µM [3, 8] [%] | cytotoxicity at 10 µM [3, 9] [%] | cytotoxicity at 1 µM [3, 9] [%] | cytotoxicity at 10 µM [3, 10] [%] | cytotoxicity at 10 µM [3, 11] [%] | cytotoxicity at 1 µM [3, 11] [%] | cytotoxicity at 10 µM [3, 12] [%] | cytotoxicity at 1 µM [3, 12] [%] | cytotoxicity at 10 µM [3, 13] [%] | cytotoxicity at 1 µM [3, 13] [%] | also measured |
| --- | --- | --- | --- | --- | --- | --- | --- | --- | --- | --- | --- | --- | --- | --- | --- | --- | --- | --- | --- | --- | --- |
| Fc1ccc([C@@H]2CCNC[C@H]2COc2ccc3c(c2)OCO3)cc1 [A37, Paroxetine] | I | 55 | 24 | 67 | 25 | 62 | 21 | 43 | 6 | 50 | 39 | 32 | 39 | 76 | 53 | 53 | 33 | 35 | 41 | 9 | toxicity for the animals (U937): toxic for the animals; tumor growth compared to the negative control (U937): decrease in tumor growth; tumor growth [2]: decreased tumor growth; death of test animals [2]: caused the death of certain test animals; cytotoxicity at 10 µM [3, 14]: 50%; cytotoxicity at 1 µM [3, 14]: 0%; cytotoxicity at 10 µM [3, 15]: 41%; cytotoxicity at 1 µM [3, 15]: 25%; cytotoxicity at 10 µM [3, 16]: 54%; cytotoxicity at 1 µM [3, 16]: 19%; cytotoxicity at 10 µM [3, 17]: 63%; cytotoxicity at 1 µM [3, 17]: 3%; cytotoxicity at 10 µM [3, 18]: 56%; cytotoxicity at 1 µM [3, 18]: 12%; cytotoxicity at 10 µM [3, 19]: 97%; cytotoxicity at 1 µM [3, 19]: 53% |
| CN[C@H]1CC[C@@H](c2ccc(Cl)c(Cl)c2)c2ccccc21 [SQ42, sertraline] | I | 61 | 24 | 83 | 16 | 84 | 18 | 26 | 46 | 53 | 39 | 68 | 46 | 73 | 42 | 11 | 38 | 25 | 78 | 0 | toxicity for the animals (U937): toxic for the animals; tumor growth compared to the negative control (U937): decrease in tumor growth; tumor growth [2]: decreased tumor growth; death of test animals [2]: caused the death of certain test animals; cytotoxicity at 10 µM [3, 14]: 42%; cytotoxicity at 1 µM [3, 14]: 17%; cytotoxicity at 10 µM [3, 15]: 59%; cytotoxicity at 1 µM [3, 15]: 20%; cytotoxicity at 10 µM [3, 16]: 35%; cytotoxicity at 1 µM [3, 16]: 11%; cytotoxicity at 10 µM [3, 17]: 82%; cytotoxicity at 1 µM [3, 17]: 15%; cytotoxicity at 10 µM [3, 18]: 72%; cytotoxicity at 1 µM [3, 18]: 36%; cytotoxicity at 10 µM [3, 19]: 79%; cytotoxicity at 1 µM [3, 19]: 38% |
| OCCN1CCN(CCCN2c3ccccc3Sc3ccc(Cl)cc32)CC1 [S64, perphenazine] | I | 36 | 11 | 31 | 12 | 27 | 25 | 26 | 3 | 42 | 36 | 57 | 7 | 54 | 47 | 0 | 23 | 18 | 17 | 8 | tumor volume ([2]; 2.5 mg/kg daily once tumors palpable): regression of the tumor volume; cytotoxicity at 10 µM [3, 14]: 17%; cytotoxicity at 1 µM [3, 14]: 8%; cytotoxicity at 10 µM [3, 15]: 32%; cytotoxicity at 1 µM [3, 15]: 0%; cytotoxicity at 10 µM [3, 16]: 35%; cytotoxicity at 1 µM [3, 16]: 24%; cytotoxicity at 10 µM [3, 17]: 45%; cytotoxicity at 1 µM [3, 17]: 0%; cytotoxicity at 10 µM [3, 18]: 50%; cytotoxicity at 1 µM [3, 18]: 18%; cytotoxicity at 10 µM [3, 19]: 35%; cytotoxicity at 1 µM [3, 19]: 0% |
| CC1=C(/C=C/C(C)=C/C=C/C(C)=C/C(=O)O)C(C)(C)CCC1 [ATRA, All Trans Retinoic Acid] |  |  |  |  |  |  |  |  |  |  |  |  |  |  |  |  |  |  |  |  | mice that developed a tumor (U937 cells): all six |
